Experimental data as given in patent US8916567B2, “Certain crystalline hydrates, pharmaceutical compositions thereof and methods for preparation and use thereof” (Universal Technology Alliance, Inc., priority 2009, dated 2014).
Read-outs that look alike come from different tables or passages of the source.

Tests used:
[1] = tested on: Staphylococcus aureus MRSA; experiment: Minimum inhibitory concentration (MIC) in vitro, agar dilution method; type: cell-based
Summary of the method: (§1)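 Agar dilution MIC per CLSI/NCCLS method against clinical isolates collected in Sichuan and Beijing, 2007-2008. Compounds dissolved in DMSO, diluted in sterile water; vancomycin and linezolid as controls. Per-strain MICs reported alongside MIC50, MIC90 and MIC range.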

S. epidermidis MRSE = experiment: as above; type: cell-based; conditions: hydrate
Summary of the method: as §1

[2] = tested on: Staphylococcus aureus MSSA; experiment: as above; type: cell-based
Summary of the method: as §1

S. epidermidis MSSE = experiment: as above; type: cell-based
Summary of the method: as §1

E. feacalis = experiment: as above; type: cell-based; conditions: hydrate
Summary of the method: as §1

E. feacium = experiment: as above; type: cell-based
Summary of the method: as §1

Staphylococcus aureus = experiment: Minimum inhibitory concentration (MIC) in vitro, agar dilution method, quality control strain; type: cell-based; conditions: strain S. AT C C25923 (Table 7 No. 1); hydrate
Description: Hydrates Samples: • The 1/2 hydrates prepared according to Example 2; • Content (purity % wt): 99.0%; • The 1/12 hydrates prepared according to Example 253; • Content (purity % wt): 98.9%; • The 2/7 hydrates prepared according to Example 106; • Content (purity % wt): 98.8%; • The 2/5 hydrates prepared according to Example 162; • Content (purity % wt): 99.0%; • The 3/4 hydrates prepared according to Example 337; • Content (purity % wt): 98.8%; • Preparation: dissolved in DMSO, and further diluted with sterile distilled water to desired concentration. • The hydrates samples were supplied by Sichuan Beilike Biotechnology LTD.
Anhydrous Sample: • The anhydrous compounds prepared according to Example 1. • Content (purity % wt): 98.6%; • Preparation: dissolved in DMSO, and further diluted with sterile distilled water to desired concentration; • The anhydrous sample was supplied by Sichuan Beilike Biotechnology LTD.
Control Samples • Vancomycin: provided by Sichuan Beilike Biotechnology LTD, purchased from Eli Lilly Japan K.K. • Lot No.: WM16151 (production date: Apr. 10, 2007, expiration date: Apr. 9, 2009). • Specification: 500 mg/bottle; solubility (physicochemical properties): soluble in water. • Linezolid (LZ): provided by Sichuan Beilike Biotechnology LTD.
Bacteria Strains • Clinically isolated strains: clinically isolated bacterial pathogens collected in Sichuan and Beijing areas from March 2007 to May 2008. • Species include: Staphylococcus aureus MRSA, Staphylococcus aureus MSSA, S. epidermidis MRSE, S. epidermidis MSSE, E. feacalis, and E. feacium, a total of 51 strains. • Quality control strains: Staphylococcus aureus […] strain kept in Sichuan Industrial Institute of Antibiotics, purchased from the medical testing center of the Ministry of Health, China.
Experimental Method: • Measurement of the minimum inhibitory concentration (MIC) in vitro: • The minimum inhibitory concentration (MIC) of each test sample against test strains was measured by using the agar dilution method recommended by the U.S. National Committee for Clinical Laboratory Standards (CLSI/NCCIs).
Based on the CLSI/NCCL's testing standard with respect to vancomycin and linezolid (see Table 6), the minimum inhibitory concentration (MIC) values of every strain were reported, and the MIC50 (the concentration that inhibits 50% of the different strains of bacteria), MIC90 (the concentration that inhibits 90% of the different strains of bacteria), and MICrange (the range of the MIC value of the tested strains) were observed.

[3] = Solubility in different solvents according to Chinese Pharmacopeia (2005 edition); type: physicochemical; conditions: for Result: at the given solute:solvent ratio
Experimental: The solubility of the (S)—[N-3-(3′-fluoro-4′-(4″-phenylpiperazinyl))phenyl-2-oxo-5-oxazolelidinyl]methylacetamide hydrates was tested with different solvents, and the test results are shown in Tables 15-19. The solubility was measured according to Chinese Pharmacopeia (2005 edition).

[4] = S. MRSA (10 strains), clinically isolated, hydrate
[5] = S. ep MRSE (10 strains), clinically isolated
[6] = S. MSSA (11 strains), clinically isolated, hydrate
[7] = S. ep MSSE (10 strains), clinically isolated, hydrate
[8] = E. feacalis (5 strains), clinically isolated
[9] = E. feacium (5 strains), clinically isolated, hydrate

Molecule `CC(=O)NC[C@H]1CN(c2ccc(N3CCN(c4ccccc4)CC3)c(F)c2)C(=O)O1` [½ hydrate, (S)—[N-3-(3′-fluoro-4′-(4″-phenylpiperazinyl))phenyl-2-oxo-5-oxazolidinyl]methyl acetamide 1/2 hydrate] has an MIC50 [1, 4] of 0.25 µg/mL, an MIC90 [1, 4] of 0.25 µg/mL and an MICrange [1, 4] of 0.25 to 0.5 µg/mL. The MIC ([1]; Staphylococcus aureus, MRSA, strain S. MRSA 101 (Table 7 No. 14), read-out: MIC) was 0.5 µg/mL, the MIC ([1]; Staphylococcus aureus, MRSA, strain S. MRSA 201 (Table 7 No. 13), read-out: MIC) was 0.5 µg/mL and the MIC ([1]; Staphylococcus aureus, MRSA, strain S. MRSA B27 (Table 7 No. 21), read-out: MIC) was 0.25 µg/mL. For the same molecule, the MIC ([1]; strain S. MRSA 29 (Table 7 No. 15), hydrate) was 0.25 µg/mL, the MIC ([1]; strain S. MRSA B105 (Table 7 No. 17), hydrate) was 0.25 µg/mL and the MIC ([1]; strain S. MRSA B143 (Table 7 No. 19), hydrate) was 0.25 µg/mL. For the same molecule, the MIC ([1]; strain S. MRSA B151 (Table 7 No. 20), hydrate) was 0.25 µg/mL, the MIC ([1]; strain S. MRSA B164 (Table 7 No. 16), hydrate) was 0.25 µg/mL and the MIC ([1]; strain S. MRSA B199 (Table 7 No. 22), hydrate) was 0.25 µg/mL. For the same molecule, the MIC ([1]; strain S. MRSA B617 (Table 7 No. 18), hydrate) was 0.25 µg/mL, the MIC50 (S. epidermidis MRSE; [5]) was 0.25 µg/mL and the MIC90 (S. epidermidis MRSE; [5]) was 0.25 µg/mL. For the same molecule, the MICrange (S. epidermidis MRSE; [5]) was 0.25 µg/mL, the MIC (S. epidermidis MRSE; strain S. ep MRSE4 (Table 8 No. 9)) was 0.25 µg/mL and the MIC (S. epidermidis MRSE; strain S. ep MRSE20 (Table 8 No. 6)) was 0.25 µg/mL. For the same molecule, the MIC (S. epidermidis MRSE; strain S. ep MRSE87 (Table 8 No. 13)) was 0.25 µg/mL, the MIC (S. epidermidis MRSE; strain S. ep MRSE90 (Table 8 No. 10)) was 0.25 µg/mL and the MIC (S. epidermidis MRSE; strain S. ep MRSE101 (Table 8 No. 7)) was 0.25 µg/mL. The MIC (S. epidermidis MRSE; strain S. ep MRSE105 (Table 8 No. 11)) was 0.25 µg/mL, the MIC (S. epidermidis MRSE; strain S. ep MRSE140 (Table 8 No. 14)) was 0.25 µg/mL and the MIC (S. epidermidis MRSE; strain S. ep MRSE142 (Table 8 No. 12)) was 0.25 µg/mL. For the same molecule, the MIC (S. epidermidis MRSE; strain S. ep MRSE210 (Table 8 No. 15)) was 0.25 µg/mL, the MIC (S. epidermidis MRSE; strain S. ep MRSE211 (Table 8 No. 8)) was 0.25 µg/mL and the MIC50 [2, 6] was 0.25 µg/mL. It also gave an MIC90 [2, 6] of 0.25 µg/mL, an MICrange [2, 6] of 0.25 to 0.5 µg/mL and an MIC ([2]; Staphylococcus aureus, MSSA, strain S. MSSA 195 (Table 7 No. 6), read-out: MIC) of 0.5 µg/mL. For the same molecule, the MIC ([2]; Staphylococcus aureus, MSSA, strain S. MSSA 201 (Table 7 No. 11), read-out: MIC) was 0.25 µg/mL, the MIC ([2]; Staphylococcus aureus, MSSA, strain S. MSSA 466 (Table 7 No. 8), read-out: MIC) was 0.25 µg/mL and the MIC ([2]; Staphylococcus aureus, MSSA, strain S. MSSA 519 (Table 7 No. 9), read-out: MIC) was 0.5 µg/mL. For the same molecule, the MIC ([2]; strain S. MSSA 123 (Table 7 No. 3), hydrate) was 0.25 µg/mL, the MIC ([2]; strain S. MSSA 187 (Table 7 No. 7), hydrate) was 0.25 µg/mL and the MIC ([2]; strain S. MSSA 195 (Table 7 No. 12), hydrate) was 0.25 µg/mL. It also gave an MIC ([2]; strain S. MSSA 232 (Table 7 No. 2), hydrate) of 0.25 µg/mL, an MIC ([2]; strain S. MSSA 275 (Table 7 No. 10), hydrate) of 0.25 µg/mL and an MIC ([2]; strain S. MSSA 520 (Table 7 No. 4), hydrate) of 0.25 µg/mL. It also gave an MIC ([2]; strain S. MSSA 580 (Table 7 No. 5), hydrate) of 0.25 µg/mL, an MIC90 (S. epidermidis MSSE; [7]) of 0.25 µg/mL and an MICrange (S. epidermidis MSSE; [7]) of 0.06 to 0.25 µg/mL. For the same molecule, the MIC50 (S. epidermidis MSSE; Staphylococcus epidermidis, S. ep MSSE (10 strains), clinically isolated, read-out: MIC50) was 0.25 µg/mL, the MIC (S. epidermidis MSSE; Staphylococcus epidermidis, strain S. ep MSSE113 (Table 7 No. 24), read-out: MIC) was 0.25 µg/mL and the MIC (S. epidermidis MSSE; Staphylococcus epidermidis, strain S. ep MSSE118 (Table 8 No. 2), read-out: MIC) was 0.25 µg/mL. It also gave an MIC (S. epidermidis MSSE; Staphylococcus epidermidis, strain S. ep MSSE140 (Table 8 No. 3), read-out: MIC) of 0.25 µg/mL, an MIC (S. epidermidis MSSE; strain S. ep MSSE87 (Table 7 No. 23), hydrate) of 0.06 µg/mL and an MIC (S. epidermidis MSSE; strain S. ep MSSE88 (Table 8 No. 5), hydrate) of 0.25 µg/mL. The MIC (S. epidermidis MSSE; strain S. ep MSSE116 (Table 7 No. 25), hydrate) was 0.25 µg/mL, the MIC (S. epidermidis MSSE; strain S. ep MSSE119 (Table 7 No. 27), hydrate) was 0.25 µg/mL and the MIC (S. epidermidis MSSE; strain S. ep MSSE137 (Table 8 No. 4), hydrate) was 0.25 µg/mL. For the same molecule, the MIC (S. epidermidis MSSE; strain S. ep MSSE142 (Table 7 No. 26), hydrate) was 0.125 µg/mL, the MIC (S. epidermidis MSSE; strain S. ep MSSE153 (Table 8 No. 1), hydrate) was 0.25 µg/mL and the MIC50 (E. feacalis; [8]) was 0.125 µg/mL. For the same molecule, the MIC90 (E. feacalis; [8]) was 0.25 µg/mL, the MICrange (E. feacalis; [8]) was 0.06 to 0.25 µg/mL and the MIC (E. feacalis; strain Efa 54 (Table 8 No. 20)) was 0.06 µg/mL. It also gave an MIC (E. feacalis; strain Efa 116 (Table 8 No. 16)) of 0.25 µg/mL, an MIC (E. feacalis; strain Efa 3006 (Table 8 No. 18)) of 0.06 µg/mL and an MIC (E. feacalis; strain Efa 33748 (Table 8 No. 17)) of 0.25 µg/mL. For the same molecule, the MIC50 (E. feacium; [9]) was 0.5 µg/mL, the MIC90 (E. feacium; [9]) was 1 µg/mL and the MICrange (E. feacium; [9]) was 0.25 to 1 µg/mL. The MIC (E. feacium; strain Efm 98 (Table 8 No. 21), hydrate) was 0.25 µg/mL, the MIC (E. feacium; strain Efm 171 (Table 8 No. 25), hydrate) was 0.25 µg/mL and the MIC (E. feacium; strain Efm 197 (Table 8 No. 22)) was 0.5 µg/mL. For the same molecule, the MIC (E. feacium; strain Efm N3 (Table 8 No. 23), hydrate) was 0.5 µg/mL, the MIC (E. feacium; strain Efm N4 (Table 8 No. 24), hydrate) was 1 µg/mL and the MIC (Staphylococcus aureus) was 0.25 µg/mL. The “Solubility compared with the anhydride” value ([3]; different solvents) was “sometimes more soluble than the anhydride”, the Result ([3]; solvent 0.1N Hydrochloric acid) was “Dissolved” and the Result ([3]; solvent 0.1N Sodium hydroxide) was “Insoluble”. The Result ([3]; solvent Acetonitrile) was “Dissolved”, the Result ([3]; solvent Ethanol) was “Dissolved” and the Result ([3]; solvent Methanol) was “Dissolved”. The Result ([3]; solvent Water, hydrate) was “Dissolved”.
